Reference: ChEMBL document CHEMBL1201862, “PubChem BioAssay data set” (2004)
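Results reflect a 48-hour exposure of cells in 96-well plates to compound at five concentrations. GI50 is the concentration that inhibits growth by half.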 The source made the active and inactive calls. No stated cut-off is given here; in the data, active = GI50 up to about 1.1 µM and inactive = higher.

Key:
Test in all cases: NCI anticancer screen, dose series, 48 h
786-0 = tested on: 786-0
A498 = tested on: A498
A549 = tested on: A549
CAKI-1 = tested on: CAKI-1
DU-145 = tested on: DU-145
HOP-62 = tested on: HOP-62
HOP-92 = tested on: HOP-92
LOX IMVI = tested on: LOX IMVI
LXFL 529 = tested on: LXFL 529
MCF7 = tested on: MCF7
OVCAR-4 = tested on: OVCAR-4
PC-3 = tested on: PC-3
RXF 393 = tested on: RXF 393
SF-539 = tested on: SF-539
SK-MEL-2 = tested on: SK-MEL-2
SK-OV-3 = tested on: SK-OV-3
UACC-257 = tested on: UACC-257
UACC-62 = tested on: UACC-62
UO-31 = tested on: UO-31

| Structure (SMILES) | GI50 (786-0) | GI50 (A498) | GI50 (A549) | GI50 (CAKI-1) | GI50 (DU-145) | GI50 (HOP-62) | GI50 (HOP-92) | GI50 (LOX IMVI) | GI50 (LXFL 529) | GI50 (MCF7) | GI50 (OVCAR-4) | GI50 (PC-3) | GI50 (RXF 393) | GI50 (SF-539) | GI50 (SK-MEL-2) | GI50 (SK-OV-3) | GI50 (UACC-257) | GI50 (UACC-62) | GI50 (UO-31) |
| --- | --- | --- | --- | --- | --- | --- | --- | --- | --- | --- | --- | --- | --- | --- | --- | --- | --- | --- | --- |
| NC1=C(Cl)C(=O)c2ccccc2C1=O | 7.4 µM (inactive) | 19.9 µM (inactive) | 2.93 µM (inactive) | 17.3 µM (inactive) | 1.87 µM (inactive) | 11.4 µM (inactive) | 14.6 µM (inactive) | 2.28 µM (inactive) | 12.6 µM (inactive) | 2.06 µM (inactive) | 7.08 µM (inactive) | 1.79 µM (inactive) | 7.67 µM (inactive) | 8.24 µM (inactive) | 7.08 µM (inactive) | 2.52 µM (inactive) | 2.57 µM (inactive) | 1.08 µM (active) | 13.7 µM (inactive) |
| N#C/C(=C1\SCC(=O)N1c1ccccc1)c1nc2ccccc2[nH]1 | > 100 µM (inactive) | > 100 µM (inactive) | > 100 µM (inactive) | > 100 µM (inactive) | – | > 100 µM (inactive) | > 100 µM (inactive) | > 100 µM (inactive) | > 100 µM (inactive) | – | > 100 µM (inactive) | – | > 100 µM (inactive) | > 100 µM (inactive) | > 100 µM (inactive) | > 100 µM (inactive) | > 100 µM (inactive) | > 100 µM (inactive) | > 100 µM (inactive) |
| Cc1ccc(NC(=O)CC/C(CC(=O)C(C)(C)C)=N\NC(=O)C[n+]2ccccc2)cc1C | > 100 µM (inactive) | > 100 µM (inactive) | > 100 µM (inactive) | > 100 µM (inactive) | – | > 100 µM (inactive) | > 100 µM (inactive) | 99.8 µM (inactive) | > 100 µM (inactive) | – | > 100 µM (inactive) | – | 68.1 µM (inactive) | > 100 µM (inactive) | > 100 µM (inactive) | > 100 µM (inactive) | > 100 µM (inactive) | > 100 µM (inactive) | > 100 µM (inactive) |
| COC1O[C@@H]2COC(C)(C)O[C@@H]2C(=O)N1Nc1ccc([N+](=O)[O-])cc1 (some centres not stated) | 34.2 µM (inactive) | > 100 µM (inactive) | > 100 µM (inactive) | > 100 µM (inactive) | – | > 100 µM (inactive) | > 100 µM (inactive) | 31.9 µM (inactive) | 55.1 µM (inactive) | – | > 100 µM (inactive) | – | > 100 µM (inactive) | > 100 µM (inactive) | > 100 µM (inactive) | > 100 µM (inactive) | > 100 µM (inactive) | > 100 µM (inactive) | > 100 µM (inactive) |
